Measured values from patent US9546150B2, “Substituted quinazolin-4-ones for inhibiting ubiquitin specific protease 7” (HYBRIGENICS SA, priority 2011, dated 2017).
One block for each compound: values may come before it.

Experiments:
Format in all cases: biochemical
USP5 = target: T1, USP5 (Homo sapiens, UniProt P45974); experiment: HAUbVS competition assay in HEK293 cell lysates, USP5; conditions: 12.5-200 μM
T1 sequence (P45974 1-858): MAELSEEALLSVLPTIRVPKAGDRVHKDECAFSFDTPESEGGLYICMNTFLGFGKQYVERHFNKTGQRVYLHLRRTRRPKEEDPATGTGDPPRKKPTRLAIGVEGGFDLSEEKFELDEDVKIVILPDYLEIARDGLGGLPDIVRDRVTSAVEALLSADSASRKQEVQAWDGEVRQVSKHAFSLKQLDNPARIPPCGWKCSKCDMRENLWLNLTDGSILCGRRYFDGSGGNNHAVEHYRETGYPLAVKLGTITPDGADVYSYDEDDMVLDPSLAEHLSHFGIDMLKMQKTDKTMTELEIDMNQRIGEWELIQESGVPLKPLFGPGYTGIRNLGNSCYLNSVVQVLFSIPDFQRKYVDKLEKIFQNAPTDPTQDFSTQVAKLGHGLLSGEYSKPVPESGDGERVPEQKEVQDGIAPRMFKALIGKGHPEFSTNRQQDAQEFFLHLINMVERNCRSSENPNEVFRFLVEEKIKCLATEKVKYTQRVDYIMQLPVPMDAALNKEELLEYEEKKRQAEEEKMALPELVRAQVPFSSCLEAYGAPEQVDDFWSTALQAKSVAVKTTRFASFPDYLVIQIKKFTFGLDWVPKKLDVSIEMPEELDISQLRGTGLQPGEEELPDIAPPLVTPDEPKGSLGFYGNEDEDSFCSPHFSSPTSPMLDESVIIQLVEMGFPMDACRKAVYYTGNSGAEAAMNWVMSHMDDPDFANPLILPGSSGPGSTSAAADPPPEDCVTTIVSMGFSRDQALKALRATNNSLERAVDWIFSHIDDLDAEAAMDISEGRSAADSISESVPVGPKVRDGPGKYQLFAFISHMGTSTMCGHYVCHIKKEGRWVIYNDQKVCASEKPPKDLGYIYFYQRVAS
Procedure: (§1) The HA-Ub-VS probe (Hemagglutin tag-Ubiquitin-Vinyl Sulfone) was used in this study to directly visualize the activity of all deubiquitinating enzymes from native proteomes.
(§2) HEK293 cells were harvested and lysed on ice with a non denaturating buffer containing Tris pH7.4, 50 mM; NaCl, 150 mM; MgCl2, 5 mM; EDTA, 0.5 mM; DTT, 2 mM; ATP (adenosine triphosphate), 2 mM; NP40 (nonyl phenoxypolyethoxylethanol), 0.5% and glycerol, 10%. Samples were incubated at 4° C. for 1 hour and clarified. Proteins were then quantified by Bradford method (Bio-Rad Protein Assay). […] The ubiquitin labeling reaction was initiated by the addition of HA-Ub-VS (8 μg/ml) in labeling buffer (Tris pH7.6, 50 mM; MgCl2, 5 mM; EDTA, 0.5 mM; DTT, 2 mM; ATP, 2 mM; sucrose, 250 mM) and incubated at room temperature for 15 min. Samples were next heated at 100° C. for 10 minutes and briefly sonicated. They were resolved by SDS-polyacrylamide gel electrophoresis (SDS-PAGE), transferred to a nitrocellulose membrane and probed with antibodies against USP7, HA, UCH-L3, CYLD, USP8, USP5, USP10 and Stat3. […] Signals were detected by enhanced chemiluminescence (ECL; Amersham) according to the reagent manufacturer's instructions.

USP8 = target: T2, USP8 (Homo sapiens, UniProt P40818); experiment: HAUbVS competition assay in HEK293 cell lysates, USP8; parameters: His tag (pFastBac-HT vector); made in house; conditions: 12.5-200 μM
T2 sequence (P40818 1-1118): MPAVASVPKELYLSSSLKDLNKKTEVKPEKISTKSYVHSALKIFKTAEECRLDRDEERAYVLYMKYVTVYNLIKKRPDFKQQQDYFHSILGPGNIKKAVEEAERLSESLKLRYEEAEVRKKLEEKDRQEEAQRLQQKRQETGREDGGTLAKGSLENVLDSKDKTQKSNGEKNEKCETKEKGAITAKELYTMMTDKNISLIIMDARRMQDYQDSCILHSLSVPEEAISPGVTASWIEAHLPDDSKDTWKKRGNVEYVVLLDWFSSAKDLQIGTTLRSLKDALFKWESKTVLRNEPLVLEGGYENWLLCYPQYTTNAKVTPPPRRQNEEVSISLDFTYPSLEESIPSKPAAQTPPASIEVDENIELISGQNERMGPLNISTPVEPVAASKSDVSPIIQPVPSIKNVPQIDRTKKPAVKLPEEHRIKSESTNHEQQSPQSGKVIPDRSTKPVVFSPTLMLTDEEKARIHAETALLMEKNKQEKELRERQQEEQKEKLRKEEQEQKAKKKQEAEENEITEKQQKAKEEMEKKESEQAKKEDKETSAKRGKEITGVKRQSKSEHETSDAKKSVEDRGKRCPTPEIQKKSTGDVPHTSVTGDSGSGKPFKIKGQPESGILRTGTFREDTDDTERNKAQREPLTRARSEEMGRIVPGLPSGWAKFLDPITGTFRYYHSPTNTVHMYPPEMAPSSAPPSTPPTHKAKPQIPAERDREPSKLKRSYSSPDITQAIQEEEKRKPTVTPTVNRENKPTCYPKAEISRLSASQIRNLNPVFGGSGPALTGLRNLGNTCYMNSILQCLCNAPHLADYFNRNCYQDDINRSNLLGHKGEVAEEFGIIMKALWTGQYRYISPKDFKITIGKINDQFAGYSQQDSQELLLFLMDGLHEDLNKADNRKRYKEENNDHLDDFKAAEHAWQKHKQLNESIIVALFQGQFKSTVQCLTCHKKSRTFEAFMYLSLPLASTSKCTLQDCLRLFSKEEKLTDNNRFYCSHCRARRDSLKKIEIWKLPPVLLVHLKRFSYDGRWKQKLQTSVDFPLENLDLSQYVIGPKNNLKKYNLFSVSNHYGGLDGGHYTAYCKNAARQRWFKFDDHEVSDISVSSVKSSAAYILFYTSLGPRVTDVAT
Procedure: as §1, §2

USP7 [1] = target: T3, USP7 (Homo sapiens, UniProt Q93009); experiment: Reversibility of USP7 inhibition after G50 gel filtration; parameters: Full-length wild-type human USP7 and its catalytic mutant; His tag (pFastBac-HT vector) (N); made in house; host or cells: Spodoptera frugiperda Sf9 (or High Five) insect cells, baculovirus; conditions: 100 μM, 4 h at room temperature, USP7 100 pM
Procedure: The reversibility of inhibition was next determined by measuring the recovery of enzymatic activity after gel filtration. […] We passed some of each sample through a G50 gel filtration system (Sephadex, G50 superfine, Sigma Aldricht). The deubiquitinating activity of the G50 eluates was assessed with the Ub-AMC substrate, as described above, and compared with that of samples not subjected to G50 filtration. The reactions were monitored using the PHERAstar (BMG Labtech).

USP7 [2] = target: T3, USP7; experiment: Time-dependent pre-incubation experiment with USP7, Ub-AMC; parameters: Full-length wild-type human USP7 and its catalytic mutant; His tag (pFastBac-HT vector) (N); made in house; host or cells: Spodoptera frugiperda Sf9 (or High Five) insect cells, baculovirus
Procedure: To better understand the mechanism of inhibition of USP7 by our USP7-specific compounds, several experiments were performed. […] […].

T3 sequence (Q93009 whole entry): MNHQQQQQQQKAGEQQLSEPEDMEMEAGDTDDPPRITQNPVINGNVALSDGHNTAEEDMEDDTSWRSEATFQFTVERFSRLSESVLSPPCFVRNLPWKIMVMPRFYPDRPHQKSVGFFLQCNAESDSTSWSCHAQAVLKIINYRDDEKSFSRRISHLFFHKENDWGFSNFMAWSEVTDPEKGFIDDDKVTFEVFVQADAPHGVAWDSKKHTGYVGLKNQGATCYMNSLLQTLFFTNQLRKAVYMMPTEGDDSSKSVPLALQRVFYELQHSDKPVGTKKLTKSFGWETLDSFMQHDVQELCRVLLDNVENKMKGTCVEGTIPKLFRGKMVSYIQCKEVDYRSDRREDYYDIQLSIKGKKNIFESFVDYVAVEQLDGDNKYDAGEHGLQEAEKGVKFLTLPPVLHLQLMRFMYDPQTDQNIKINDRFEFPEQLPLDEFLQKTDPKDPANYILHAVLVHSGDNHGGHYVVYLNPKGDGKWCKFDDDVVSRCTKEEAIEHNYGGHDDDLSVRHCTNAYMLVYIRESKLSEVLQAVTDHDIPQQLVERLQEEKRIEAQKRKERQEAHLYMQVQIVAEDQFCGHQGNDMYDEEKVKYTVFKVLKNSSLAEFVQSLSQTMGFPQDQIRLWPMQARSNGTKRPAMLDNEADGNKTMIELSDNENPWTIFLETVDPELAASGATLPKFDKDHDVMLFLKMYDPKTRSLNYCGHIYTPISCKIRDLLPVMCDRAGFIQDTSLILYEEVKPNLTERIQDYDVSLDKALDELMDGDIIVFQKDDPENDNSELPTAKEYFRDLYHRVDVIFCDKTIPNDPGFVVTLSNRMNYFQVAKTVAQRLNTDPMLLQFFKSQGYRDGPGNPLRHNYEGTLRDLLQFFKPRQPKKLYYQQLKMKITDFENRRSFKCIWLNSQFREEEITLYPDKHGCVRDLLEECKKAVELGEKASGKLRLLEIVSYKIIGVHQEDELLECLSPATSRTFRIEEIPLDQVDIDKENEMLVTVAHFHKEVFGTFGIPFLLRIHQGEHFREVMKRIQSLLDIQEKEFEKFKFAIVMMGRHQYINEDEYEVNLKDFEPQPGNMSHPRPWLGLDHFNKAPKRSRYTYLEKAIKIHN

blocking of HAUbVS labeling of USP5 (USP5): without any cross-reaction | blocking of HAUbVS labeling of USP8 (USP8): without any cross-reaction
Compound: CC(Cc1cccs1)C(=O)N1CCC(O)(Cn2cnc3ccccc3c2=O)CC1 (centres unmarked) [Example 5, 3-({4-hydroxy-1-[2-methyl-3-(thiophen-2-yl)propanoyl]piperidin-4-yl}methyl)-3,4-dihydroquinazolin-4-one]

recovery of USP7 activity after G50 gel filtration (USP7 [1]): total restoration of USP7 activity
Compound: O=C(CCC1CCCC1)N1CCC(O)(Cn2cnc3ccccc3c2=O)CC1 [Example 3, 3-{[1-(3-cyclopentylpropanoyl)-4-hydroxypiperidin-4-yl]methyl}-3,4-dihydroquinazolin-4-one]

time dependence of USP7 inhibition (USP7 [2]; 100 μM, pre-incubation 30 min, 1 h, 2 h, 4 h, 6 h): not a time-dependent inhibitor | inhibition at 100 µM (USP7 [2]; USP7 100 pM, pre-incubation 30 min to 6 h, Ub-AMC): ~75%
Compound: O=C(CCc1ccccc1)N1CCC(O)(Cn2cnc3cc(Cl)ccc3c2=O)CC1 [Example 2, 7-chloro-3-{[4-hydroxy-1-(3-phenylpropanoyl)piperidin-4-yl]methyl}-3,4-dihydroquinazolin-4-one]
